# Test results: PMC4381587, “A novel PI3K inhibitor PIK-C98 displays potent preclinical activity against multiple myeloma” (Oncotarget, 2014)
# Tested on: PTEN
# Test: Immunoblotting of PTEN protein level in MM cells
# Type: cell-based
# Settings: MM cells after C98 treatment
# Procedure: To find out whether C98 also interfered with other signaling pathways, we first checked the receptor tyrosine kinase IGF-1R, which mediates PI3K activation in MM cells in the presence of IGF-1. Starved MM cells LP1 and JJN3 were incubated with C98 followed by IGF-1 stimulation. […] Moreover, we also measured the expression of PTEN, a negative regulator of PI3K signaling, in MM cells after C98 treatment.
# The immunoblotting assays were performed as described previously. IRDye 680 goat anti-mouse and IRDye 800CW goat anti-rabbit antibodies were from Odyssey (San Ramon, CA, USA).
structure (smiles),measurement,value
N#C/C(=C\C=C\c1ccc(-c2cc(Cl)ccc2Cl)o1)C(N)=S [C98],PTEN protein level,had no effects on the PTEN protein level
